# Where two headings read alike, the source gives them in different places.
# Tests used:
# A. baumannii A329 [1] = assay: MIC determination for Acinetobacter strains (Example 3); type: cell-based; conditions: LEV R, CIP R, MRP R, IMP R, AMK R, TET R
# A. baumannii A473 [2] = assay: Preliminary MBC without and with sub-inhibitory polymyxin B (Example 4); type: cell-based, Acinetobacter baumannii; conditions: Acinetobacter baumannii, A473, A. baumannii A473, without polymyxin B, read-out: MBC without PB
# A. baumannii A401 [3] = assay: as above; type: cell-based, Acinetobacter baumannii; conditions: Acinetobacter baumannii, A401, A baumannii A 401, without polymyxin B, preliminary MBC, read-out: MBC without PB
# Pseudomonas ssp PER-1 = assay: MIC, panel of quinolone-resistant strains (CLSI); type: cell-based, Pseudomonas spp; conditions: PER1, CIP R, ESBL
# P. aeruginosa 1388-3-02 = assay: MIC, panel of quinolone-resistant strains (CLSI); type: cell-based; conditions: Pseudomonas aeruginosa, 1388302; CIP R, POL R
# [4] = test system: Acinetobacter sp. (H064200250); assay: MIC without and with sub-inhibitory polymyxin B (Example 4); type: cell-based; conditions: Acinetobacter
# A. baumannii A 401 = assay: MIC determination for Acinetobacter strains (Example 3); type: cell-based; conditions: A401, LEV R, CIP R, AMK R, TET R
# A. baumannii A390 = assay: Preliminary MBC without and with sub-inhibitory polymyxin B (Example 4); type: cell-based, Acinetobacter baumannii; conditions: Acinetobacter baumannii, A390, A. baumannii A390, without polymyxin B, preliminary MBC, read-out: MBC without PB
# A. baumannii A489 [5] = assay: as above; type: cell-based, Acinetobacter baumannii; conditions: Acinetobacter baumannii, A489, A. baumannii A489, without polymyxin B, read-out: MBC without PB
# A. baumannii A401 [6] = assay: MIC without and with sub-inhibitory polymyxin B (Example 4); type: cell-based, Acinetobacter baumannii; conditions: Acinetobacter baumannii, A401, A baumannii A 401, without polymyxin B, read-out: MIC without PB
# A. baumannii A472 [7] = assay: MIC determination for Acinetobacter strains (Example 3); type: cell-based; conditions: LEV R, CIP R, MRP I, IMP I, AMK R, TET R
# [8] = test system: Acinetobacter sp. (H064200250); assay: Preliminary MBC without and with sub-inhibitory polymyxin B (Example 4); type: cell-based; conditions: Acinetobacter, without polymyxin B, preliminary MBC, read-out: MBC without PB
# Method in brief: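 Bactericidal endpoint scored visually on plates incubated at 37° C (18-20 hours): the lowest concentration where growth fell about 90% versus the positive control, generally leaving one colony or none.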
# A. baumannii A472 [9] = assay: as above; type: cell-based, Acinetobacter baumannii; conditions: Acinetobacter baumannii, A472, A. baumannii A472, without polymyxin B, read-out: MBC without PB
# A. baumannii J2 = assay: MIC without and with sub-inhibitory polymyxin B (Example 4); type: cell-based, Acinetobacter baumannii; conditions: Acinetobacter baumannii, J2, A. baumannii J2, without polymyxin B, read-out: MIC without PB
# [10] = test system: resistant strains of A. baumannii and one strain of Acinetobacter sp.; assay: MIC without and with sub-inhibitory polymyxin B, whole panel / MIC ranges (Example 4; also strains not listed separately); type: cell-based; conditions: Acinetobacter baumannii
# A. baumannii A472 [11] = assay: MIC without and with sub-inhibitory polymyxin B (Example 4); type: cell-based, Acinetobacter baumannii; conditions: Acinetobacter baumannii, A472, A. baumannii A472, without polymyxin B, read-out: MIC without PB
# A. baumannii A329 [12] = assay: as above; type: cell-based, Acinetobacter baumannii; conditions: Acinetobacter baumannii
# A. baumannii ATCC 19606 = assay: as above; type: cell-based, Acinetobacter baumannii; conditions: Acinetobacter baumannii, ATCC19606, A. baumannii ATCC 19606, without polymyxin B, read-out: MIC without PB
# A. baumannii A473 [13] = assay: as above; type: cell-based, Acinetobacter baumannii; conditions: Acinetobacter baumannii
# E. coli CTX-M-15 = assay: MIC, panel of quinolone-resistant strains (CLSI); type: cell-based; conditions: Escherichia coli, CTXM15; CIP R, ESBL
# E. coli 2906 = assay: MIC, panel of quinolone-resistant strains (CLSI); type: cell-based; conditions: Escherichia coli, CIP R
# [14] = test system: Acinetobacter spp. H064200250; assay: MIC determination for Acinetobacter strains (Example 3); type: cell-based, Acinetobacter sp.; conditions: LEV R, CIP R, MRP R, IMP I
# A. baumannii A329 [15] = assay: Preliminary MBC without and with sub-inhibitory polymyxin B (Example 4); type: cell-based, Acinetobacter baumannii; conditions: Acinetobacter baumannii, A329, A. baumannii A329, without polymyxin B, read-out: MBC without PB
# A. baumannii A489 [16] = assay: MIC without and with sub-inhibitory polymyxin B (Example 4); type: cell-based, Acinetobacter baumannii; conditions: Acinetobacter baumannii, A489, A. baumannii A489, without polymyxin B, read-out: MIC without PB
# [17] = Acinetobacter spp. H064200250 (OXA51), without polymyxin B, 2nd experiment, visual reading, read-out: MIC without PB
# [18] = Acinetobacter spp. H064200250, without polymyxin B, 1st experiment, read-out: MIC without PB
# [19] = Acinetobacter spp. H064200250 (OXA51), 2nd experiment
# [20] = Acinetobacter spp. H064200250, 1st experiment
# [21] = A329, A. baumannii A329, without polymyxin B, 1st experiment, read-out: MIC without PB
# [22] = A473, A. baumannii A473, without polymyxin B, 2nd experiment, visual reading, read-out: MIC without PB
smiles,measurement,setting,value
"Cc1c(-c2ccc(N)cc2)ccn2c(=O)c(C(=O)O)cc(C3CC3)c12 [Compound 8, 8-(4-amino-phenyl)-1-cyclopropyl-9-methyl-4-oxo-quinolizine-3-carboxylic acid]",MIC,A. baumannii A329 [1],16 µg/mL
same,MBC,A. baumannii A473 [2]; 2nd experiment,4 µg/mL
same,MBC,A. baumannii A401 [3]; 2nd experiment,8 µg/mL
same,MBC,A. baumannii A401 [3]; 1st experiment,8 µg/mL
same,MIC,Pseudomonas ssp PER-1,16 µg/mL
same,MIC,P. aeruginosa 1388-3-02,8 µg/mL
same,MIC,"[4]; Acinetobacter spp. H064200250 (OXA51), without polymyxin B, 2nd experiment, MIC read with alamar blue, read-out: MIC without PB, read with alamar blue",8 µg/mL
same,MIC,[4]; [17],4 µg/mL
same,MIC,[4]; [18],2 µg/mL
same,MIC,A. baumannii A 401,32 µg/mL
same,MBC,A. baumannii A390; 1st experiment,8 µg/mL
same,MBC,A. baumannii A489 [5]; 2nd experiment,8 µg/mL
same,MIC,A. baumannii A401 [6]; 1st experiment,32 µg/mL
same,MIC,A. baumannii A472 [7],4 µg/mL
same,MBC,[8]; [19],4 µg/mL
same,MBC,[8]; [20],4 µg/mL
same,MBC,A. baumannii A472 [9]; 2nd experiment,4 µg/mL
same,MIC,"A. baumannii J2; 2nd experiment, visual reading",4 µg/mL
same,MIC,"[10]; A. baumannii A14, without polymyxin B, 1st experiment, read-out: MIC without PB",32 µg/mL
same,MIC,"[10]; NCTC13301, A. baumannii NCTC 13301, without polymyxin B, 1st experiment, read-out: MIC without PB",32 µg/mL
same,MIC,"[10]; NCTC13301, A. baumannii NCTC 13301, without polymyxin B, 2nd experiment, visual reading, read-out: MIC without PB",16 µg/mL
same,MIC,A. baumannii A472 [11]; 1st experiment,4 µg/mL
same,MIC,"A. baumannii A472 [11]; 2nd experiment, visual reading",4 µg/mL
same,MIC,A. baumannii A329 [12]; [21],16 µg/mL
same,MIC,A. baumannii ATCC 19606; 1st experiment,1 µg/mL
same,MIC,A. baumannii A473 [13]; [22],4 µg/mL
same,MIC,E. coli CTX-M-15,> 32 µg/mL
same,MIC,E. coli 2906,> 32 µg/mL
same,MIC,[14],2 µg/mL
same,MBC,A. baumannii A329 [15]; 2nd experiment,8 µg/mL
"Cc1c(-c2cc(F)c(N)cc2F)ccn2c(=O)c(C(=O)O)cc(C3CC3)c12 [Compound 2, 8-(3,6-difluoro-4-amino-phenyl)-1-cyclopropyl-9-methyl-4-oxo-quinolizine-3-carboxylic acid]",MIC,A. baumannii A329 [1],8 µg/mL
same,MBC,A. baumannii A473 [2]; 1st experiment,2 µg/mL
same,MBC,A. baumannii A473 [2]; 2nd experiment,4 µg/mL
same,MBC,A. baumannii A401 [3]; 2nd experiment,4 µg/mL
same,MBC,A. baumannii A401 [3]; 1st experiment,2 µg/mL
same,MIC,Pseudomonas ssp PER-1,16 µg/mL
same,MIC,P. aeruginosa 1388-3-02,8 µg/mL
same,MIC,[4]; [17],4 µg/mL
same,MIC,[4]; [18],4 µg/mL
same,MIC,"[4]; read-out: MIC +[…] PB, read with alamar blue, Acinetobacter spp. H064200250 (OXA51), +[…] polymyxin B, 2nd experiment, MIC read with alamar blue",0.06 µg/mL
same,MIC,A. baumannii A 401,4 µg/mL
same,MBC,A. baumannii A390; 2nd experiment,16 µg/mL
same,MBC,A. baumannii A390; 1st experiment,8 µg/mL
same,MBC,A. baumannii A489 [5]; 1st experiment,2 µg/mL
same,MBC,A. baumannii A489 [5]; 2nd experiment,4 µg/mL
same,MIC,A. baumannii A401 [6]; 1st experiment,4 µg/mL
same,MIC,"A. baumannii A401 [6]; 2nd experiment, visual reading",4 µg/mL
same,MIC,A. baumannii A489 [16]; 1st experiment,2 µg/mL
same,MIC,"A. baumannii A489 [16]; 2nd experiment, visual reading",4 µg/mL
same,MIC,A. baumannii A472 [7],4 µg/mL
same,MBC,[8]; [19],8 µg/mL
same,MBC,[8]; [20],4 µg/mL
same,MBC,A. baumannii A472 [9]; 1st experiment,4 µg/mL
same,MBC,A. baumannii A472 [9]; 2nd experiment,8 µg/mL
same,MIC,A. baumannii J2; 1st experiment,4 µg/mL
same,MIC,"A. baumannii J2; 2nd experiment, visual reading",4 µg/mL
same,MIC,"[10]; read-out: MIC range without PB 01-10-2008 n = 8, without polymyxin B, 1st experiment, 8 strains",0.5 to 16 µg/mL
same,MIC,"[10]; without polymyxin B, 2nd experiment, 11 strains, read-out: MIC range without PB 14-10-2008 n = 11",1 to 16 µg/mL
same,MIC,A. baumannii A472 [11]; 1st experiment,4 µg/mL
same,MIC,"A. baumannii A472 [11]; 2nd experiment, visual reading",4 µg/mL
same,MIC,A. baumannii A329 [12]; [21],8 µg/mL
same,MIC,"A. baumannii A329 [12]; A329, A. baumannii A329, without polymyxin B, 2nd experiment, visual reading, read-out: MIC without PB",8 µg/mL
same,MIC,"A. baumannii A329 [12]; A329, read-out: MIC +0.06 μg/ml PB, read with alamar blue, A. baumannii A329, +0.06 μg/ml polymyxin B, 2nd experiment, MIC read with alamar blue",1 µg/mL
same,MIC,"A. baumannii ATCC 19606; 2nd experiment, visual reading",0.125 µg/mL
same,MIC,"A. baumannii A473 [13]; A473, A. baumannii A473, without polymyxin B, 1st experiment, read-out: MIC without PB",8 µg/mL
same,MIC,A. baumannii A473 [13]; [22],4 µg/mL
same,MIC,"A. baumannii A473 [13]; A473, read-out: MIC +0.06 μg/ml PB, read with alamar blue, A. baumannii A473, +0.06 μg/ml polymyxin B, 2nd experiment, MIC read with alamar blue",0.125 µg/mL
same,MIC,E. coli CTX-M-15,> 32 µg/mL
same,MIC,E. coli 2906,32 µg/mL
same,MIC,[14],4 µg/mL
same,MBC,A. baumannii A329 [15]; 1st experiment,8 µg/mL
same,MBC,A. baumannii A329 [15]; 2nd experiment,8 µg/mL
